The target of assay [1] is T1, Cea1A (=KpFlo1A) (Komagataella pastoris, UniProt A0A1B2J5V1).
T1 construct: gene ATY40_BA7500007; A domain, D78-E296, N-terminally His6-tagged
The experiment in a line: ITC and co-crystal structure ([…] Å). Format: binding.

In assay [2] the target is T1, Cea1A (=KpFlo1A). The experiment in a line: ITC and co-crystal structure ([…] Å). Format: binding. Conditions: read-out: Cea1A•N,N′-diacetylchitobiose.
Assay [3] deals with T1, Cea1A (=KpFlo1A). In words: weak binding KD (Supplementary Figure S6), validated by fluorescence titration.

T1 sequence (A0A1B2J5V1 entry or part of it): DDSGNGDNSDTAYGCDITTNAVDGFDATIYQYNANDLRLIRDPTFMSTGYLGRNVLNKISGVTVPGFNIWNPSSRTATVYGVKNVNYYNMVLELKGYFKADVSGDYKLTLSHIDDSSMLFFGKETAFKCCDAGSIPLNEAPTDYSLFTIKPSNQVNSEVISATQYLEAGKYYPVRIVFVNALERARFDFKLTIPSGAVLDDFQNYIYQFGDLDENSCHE

With `CC(=O)N[C@@H]1[C@@H](O)[C@H](O)[C@@H](CO)O[C@H]1O` [GlcNAc], at Cea1A (=KpFlo1A) [1], the Kd was found to be 7.67 ± 0.49 µM.
Turning to `CC(=O)N[C@H]1[C@H](O[C@H]2[C@H](O)[C@@H](NC(C)=O)C(O)O[C@@H]2CO)O[C@H](CO)[C@@H](O)[C@@H]1O` (stereo partly drawn) [N,N′-diacetylchitobiose], the Kd on Cea1A (=KpFlo1A) [2] came out at 13.1 ± 3.56 µM.
On Cea1A (=KpFlo1A) [3], `OC[C@H]1OC(O)[C@H](O)[C@@H](O)[C@@H]1O` (stereo partly drawn) [glucose] came in with a Kd of 2380 µM.

The values are drawn from article PMC6218569, “Structural and Functional Characterization of PA14/Flo5-Like Adhesins From Komagataella pastoris” (Frontiers in Microbiology, 2018).
